Usually inhibition stands for the change of the read-out against control, counted positive when it falls.

For assay [1], the target named is T1, Human recombinant enteropeptidase (Homo sapiens, UniProt P98073).
T1 construct: purchased ITSI-Biosciences LLC #REN-260
As to the kind of experiment: Human enteropeptidase inhibitory activity. In kind it is biochemical. The following applies: 1 μM test compound; fluorescence intensity at 2 hours after start of reaction; read-out: Inhibition rate at 1 μM. How it is done:
Test Example 1: Human Enteropeptidase Inhibitory Activity
Human recombinant enteropeptidase (#REN-260, ITSI-Biosciences LLC) was diluted with an assay buffer (50 mM Tricine, pH 8.0, 0.01 (w/v) %, Tween 20, 10 mM CaCl2)) to prepare a 24 mU/mL enzyme solution. Subsequently, 5FAM-Abu-Gly-Asp-Asp-Asp-Lys-Ile-Val-Gly-Gly-Lys(CPQ2)-Lys-Lys-NH2 (CPC Scientific Inc.) was diluted with the assay buffer to prepare a 2.1 μM substrate solution. A test compound is dissolved in DMSO into a 10 mM solution, and the solution was diluted with the assay buffer to give a compound solution. To a 384-well black plate (#784076, Greiner Bio-One), 5 μL of the compound solution and 5 μL of the substrate solution were added and mixed, and 5 μL of the enzyme solution was then added to the mixture, followed by mixing to start the reaction. The fluorescence intensity was measured with a fluorescence plate reader EnVision (The Perkin-Elmer Corp.) at an excitation wavelength of 485 nm and a fluorescence wavelength of 535 nm. The same reaction as above was performed without the addition of the test compound (test compound non-addition group). Furthermore, the same reaction as above was performed without the addition of the test compound and the enzyme (control group). The inhibition rate was calculated using the fluorescence intensity at 2 hours after the start of the reaction by the following expression:
Inhibition rate (%)=(1−((fluorescence intensity of test compound addition group)−(fluorescence intensity of control group))/((fluorescence intensity of test compound non-addition group)−(fluorescence intensity of control group)))×100

The subject of a further assay is High fat diet-fed mice. Put plainly: Fecal protein concentration-increasing test using high fat diet-fed mouse. The settings on record: Mus musculus, po, 24 h, 30 mg/kg oral, feces of first day of administration, vehicle group = 100, read-out: Fecal protein concentration-increasing rate. In kind it is in vivo. The source says: Test Example 2: Fecal Protein Concentration-Increasing Test Using High Fat Diet-Fed Mouse
High fat diet-fed mice (D12451 diet, male, 10- to 50-week old) were orally administered with a 0.5% methyl cellulose suspension containing a test compound (compound administration group, five mice per group) or a 0.5% methyl cellulose suspension (compound non-administration group (vehicle group), five mice per group), and whole feces were collected on the first day of administration. Dried feces were dissolved in 0.5 N NaOH, followed by centrifugation at 12,000 rpm. The protein concentration in the supernatant was then quantitatively measured (Lowry method), and the amount of protein contained in 1 g of feces was calculated as the fecal protein concentration (mg/g feces). The fecal protein concentration-increasing rate was calculated by the following expression.
Fecal protein concentration-increasing rate (%)=Fecal protein concentration of compound administration group/Fecal protein concentration of vehicle group×100

Assay [2] relates to Diet-induced obesity (DIO) mice. As to the kind of experiment: Anti-obesity effect test using DIO mouse. The format is in vivo. The following applies: for Body weight (g) At start of administration: average at start of administration; for Body weight (g) After 7-day administration: average; for Fecal protein concentration-increasing rate (%): feces of eighth day, vehicle = 100. Here is the method: Test Example 3: Anti-Obesity Effect Test Using DIO Mouse
Diet-induced obesity (DIO) mice (D12451 diet, male, 26-week old) were orally administered with a 0.5% methyl cellulose suspension containing a test compound (30 mg/kg) (compound administration group, five mice per group) or a 0.5% methyl cellulose suspension (compound non-administration group (vehicle), five mice per group) once a day for seven days, and whole feces were collected on the eighth day of administration. Dried feces were dissolved in 0.5 N NaOH, followed by centrifugation at 12,000 rpm. The protein concentration in the supernatant was then quantitatively measured (Lowry method), and the amount of protein contained in 1 g of feces was calculated as the fecal protein concentration (mg/g feces). The fecal protein concentration-increasing rate was calculated by the following expression.
Fecal protein concentration-increasing rate (%)=Fecal protein concentration of compound administration group/Fecal protein concentration of vehicle group X 100
The fecal protein concentration-increasing rate and the averages of the body weights at the start of administration and after administration for seven days are shown in Table 6.
Also, DIO mice (D12451 diet, male, 59-week old) were orally administered with a 0.5% methyl cellulose suspension containing a test compound (20 mg/kg) (compound administration group, five mice per group) or a 0.5% methyl cellulose suspension (compound non-administration group (vehicle), five mice per group) once a day for seven days, and whole feces were collected on the eighth day of administration. The fecal protein concentration (mg/g feces) was calculated by the method described above. The fecal protein concentration-increasing rate and the averages of the body weights at the start of administration and after administration for seven days are shown in Table 7.

Where [3] appears, read: DIO mice 26-week old, 30 mg/kg oral once a day for seven days.
Where [4] appears, read: DIO mice 59-week old, 20 mg/kg oral once a day for seven days.

T1 sequence (P98073 whole entry): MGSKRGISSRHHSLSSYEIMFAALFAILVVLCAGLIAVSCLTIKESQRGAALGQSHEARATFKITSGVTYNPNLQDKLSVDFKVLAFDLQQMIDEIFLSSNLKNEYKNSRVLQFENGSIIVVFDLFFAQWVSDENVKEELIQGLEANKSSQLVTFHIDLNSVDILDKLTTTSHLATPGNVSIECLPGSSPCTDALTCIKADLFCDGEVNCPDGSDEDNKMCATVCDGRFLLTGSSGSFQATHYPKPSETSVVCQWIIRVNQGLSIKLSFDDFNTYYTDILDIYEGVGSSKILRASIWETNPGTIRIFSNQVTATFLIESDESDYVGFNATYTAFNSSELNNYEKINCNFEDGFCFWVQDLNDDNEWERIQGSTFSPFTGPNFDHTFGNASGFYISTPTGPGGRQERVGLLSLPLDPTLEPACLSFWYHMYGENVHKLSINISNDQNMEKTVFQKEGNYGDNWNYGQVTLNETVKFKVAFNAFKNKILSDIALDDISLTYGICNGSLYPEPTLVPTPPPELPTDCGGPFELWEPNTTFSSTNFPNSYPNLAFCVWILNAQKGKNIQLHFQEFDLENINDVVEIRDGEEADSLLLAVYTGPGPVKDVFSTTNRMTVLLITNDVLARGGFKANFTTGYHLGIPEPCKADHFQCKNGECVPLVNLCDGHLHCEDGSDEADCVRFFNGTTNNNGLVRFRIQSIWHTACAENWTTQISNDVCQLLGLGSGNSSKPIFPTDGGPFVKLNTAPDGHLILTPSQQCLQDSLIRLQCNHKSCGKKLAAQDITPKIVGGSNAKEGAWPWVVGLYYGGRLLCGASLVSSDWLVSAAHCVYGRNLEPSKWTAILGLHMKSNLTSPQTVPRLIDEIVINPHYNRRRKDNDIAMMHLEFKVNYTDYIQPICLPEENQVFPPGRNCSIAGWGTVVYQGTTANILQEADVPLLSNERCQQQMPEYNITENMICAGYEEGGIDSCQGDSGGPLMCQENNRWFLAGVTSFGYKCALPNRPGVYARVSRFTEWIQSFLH

On to `Cl.Cl.N=C(N)Nc1ccc(C(=O)Oc2cc(OCCOCCOc3cc(OC(=O)c4ccc(NC(=N)N)cc4)cc(C(=O)N[C@H](CC(=O)O)C(=O)O)c3)cc(C(=O)N[C@H](CC(=O)O)C(=O)O)c2)cc1` [Example 15, (2R)-2-[[3-[2-[2-[3-[[(1R)-1,2-Dicarboxyethyl]carbamoyl]-5-(4-guanidinobenzoyl)oxyphenoxy]ethoxy]ethoxy]-5-(4-guanidinobenzoyl)oxybenzoyl]amino]butanedioic acid dihydrochloride], for which, in assay [1], the inhibition at 1 µM was determined as 100%. The response vs control in vivo at 30 mg/kg in the assay with High fat diet-fed mice worked out at 212%. For the same molecule, the “Body weight (g) At start of administration” value is listed as 46.0 g in assay [2] (DIO mice 26-week old, 30 mg/kg group) and 56.6 g in assay [2] (DIO mice 59-week old, 20 mg/kg group). The “Body weight (g) After 7-day administration” value in assay [2] (setting [3]) turned out to be 43.4 g; in assay [2] (setting [4]), 54.0 g. In addition, the “Fecal protein concentration-increasing rate (%)” value in assay [2] (setting [3]) came to 250%; in assay [2] (setting [4]), 227%.

The values are drawn from US20210403420A1, “BENZOATE COMPOUND” (SCOHIA PHARMA, INC., priority 2018, published 2021).
